Test results as given in PubChem BioAssay (NCI).
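Tested at 5 concentrations; 48 h exposure; 96-well plates; endpoints linearly interpolated, else capped at highest concentration. At the GI50, growth is halved. The concentration for full growth arrest is given as TGI.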

Experiments:
Experiment in all cases: NCI anticancer screen, dose series, 48 h
TK-10 renal = tested on: TK-10 renal
MALME-3M melanoma = tested on: MALME-3M melanoma
UACC-62 melanoma = tested on: UACC-62 melanoma
HCT-116 colon = tested on: HCT-116 colon
EKVX NSCLC = tested on: EKVX NSCLC
RPMI-8226 leukemia = tested on: RPMI-8226 leukemia
T-47D breast = tested on: T-47D breast
CAKI-1 renal = tested on: CAKI-1 renal
CCRF-CEM leukemia = tested on: CCRF-CEM leukemia
HOP-92 NSCLC = tested on: HOP-92 NSCLC
MDA-MB-435 = tested on: MDA-MB-435
NCI-H226 lung = tested on: NCI-H226 lung
A549 NSCLC = tested on: A549 NSCLC
HCC-2998 colon = tested on: HCC-2998 colon
HCT-15 colon = tested on: HCT-15 colon
MDA-MB-231 breast = tested on: MDA-MB-231 breast
UO-31 renal = tested on: UO-31 renal
NCI-H522 lung = tested on: NCI-H522 lung
SNB-75 CNS = tested on: SNB-75 CNS
OVCAR-4 ovarian = tested on: OVCAR-4 ovarian
OVCAR-5 ovarian = tested on: OVCAR-5 ovarian
HS 578T breast = tested on: HS 578T breast
UACC-257 melanoma = tested on: UACC-257 melanoma
SK-MEL-2 melanoma = tested on: SK-MEL-2 melanoma
SR leukemia = tested on: SR leukemia
SK-OV-3 ovarian = tested on: SK-OV-3 ovarian
SF-268 CNS = tested on: SF-268 CNS
SF-295 CNS = tested on: SF-295 CNS
SNB-19 CNS = tested on: SNB-19 CNS
KM12 colon = tested on: KM12 colon
A498 renal = tested on: A498 renal
HOP-62 NSCLC = tested on: HOP-62 NSCLC
HT29 colon = tested on: HT29 colon
K-562 leukemia = tested on: K-562 leukemia
NCI-H460 lung = tested on: NCI-H460 lung
OVCAR-3 ovarian = tested on: OVCAR-3 ovarian
IGROV1 ovarian = tested on: IGROV1 ovarian
U251 CNS = tested on: U251 CNS
ACHN renal = tested on: ACHN renal
SN12C renal = tested on: SN12C renal
NCI/ADR-RES ovarian = tested on: NCI/ADR-RES ovarian
DU-145 prostate = tested on: DU-145 prostate
MCF7 breast = tested on: MCF7 breast
MOLT-4 leukemia = tested on: MOLT-4 leukemia
RXF 393 renal = tested on: RXF 393 renal
NCI-H23 lung = tested on: NCI-H23 lung
SF-539 CNS = tested on: SF-539 CNS
BT-549 breast = tested on: BT-549 breast
SK-MEL-28 melanoma = tested on: SK-MEL-28 melanoma
HL-60(TB) leukemia = tested on: HL-60(TB) leukemia
PC-3 prostate = tested on: PC-3 prostate
OVCAR-8 ovarian = tested on: OVCAR-8 ovarian
SK-MEL-5 melanoma = tested on: SK-MEL-5 melanoma
LOX IMVI melanoma = tested on: LOX IMVI melanoma
COLO 205 colon = tested on: COLO 205 colon
M14 melanoma = tested on: M14 melanoma
786-0 renal = tested on: 786-0 renal
SW-620 colon = tested on: SW-620 colon

## O=c1nc2oc3ccc4ccccc4c3cc-2s1
TK-10 renal
  GI50: > 25.4 µM
  TGI: > 100 µM
MALME-3M melanoma
  GI50: 0.743 µM
  TGI: > 100 µM
UACC-62 melanoma
  GI50: 1.22 µM
  TGI: > 100 µM
HCT-116 colon
  GI50: 1.14 µM
  TGI: > 100 µM
EKVX NSCLC
  GI50: 59.6 µM
  TGI: > 100 µM
RPMI-8226 leukemia
  GI50: 50.9 µM
  TGI: > 100 µM
T-47D breast
  GI50: 3.51 µM
  TGI: > 100 µM
CAKI-1 renal
  GI50: 1.16 µM
  TGI: > 100 µM
CCRF-CEM leukemia
  GI50: 0.989 µM
  TGI: > 100 µM
HOP-92 NSCLC
  GI50: 1.62 µM
  TGI: > 57.8 µM
MDA-MB-435
  GI50: 0.259 µM
  TGI: 0.783 µM
NCI-H226 lung
  GI50: 17.7 µM
  TGI: > 100 µM
A549 NSCLC
  GI50: > 92.7 µM
  TGI: > 100 µM
HCC-2998 colon
  GI50: > 100 µM
  TGI: > 100 µM
HCT-15 colon
  GI50: > 45.7 µM
  TGI: > 100 µM
MDA-MB-231 breast
  GI50: 12.4 µM
  TGI: > 100 µM
UO-31 renal
  GI50: 33.7 µM
  TGI: > 100 µM
NCI-H522 lung
  GI50: 0.596 µM
  TGI: > 100 µM
SNB-75 CNS
  GI50: 0.476 µM
  TGI: 10.1 µM
OVCAR-4 ovarian
  GI50: 58.4 µM
  TGI: > 100 µM
OVCAR-5 ovarian
  GI50: > 100 µM
  TGI: > 100 µM
HS 578T breast
  GI50: 0.528 µM
  TGI: > 61.8 µM
UACC-257 melanoma
  GI50: > 69.9 µM
  TGI: > 100 µM
SK-MEL-2 melanoma
  GI50: 3.79 µM
  TGI: > 100 µM
SR leukemia
  GI50: 0.458 µM
  TGI: > 100 µM
SK-OV-3 ovarian
  GI50: 15.1 µM
  TGI: > 100 µM
SF-268 CNS
  GI50: 7.97 µM
  TGI: > 100 µM
SF-295 CNS
  GI50: 2.96 µM
  TGI: > 92.7 µM
SNB-19 CNS
  GI50: 6.73 µM
  TGI: > 100 µM
KM12 colon
  GI50: 0.961 µM
  TGI: > 100 µM
A498 renal
  GI50: 0.184 µM
  TGI: 7.86 µM
HOP-62 NSCLC
  GI50: 4.7 µM
  TGI: > 79 µM
HT29 colon
  GI50: 18 µM
  TGI: > 100 µM
K-562 leukemia
  GI50: 0.526 µM
  TGI: > 100 µM
NCI-H460 lung
  GI50: 4.93 µM
  TGI: > 100 µM
OVCAR-3 ovarian
  GI50: 0.457 µM
  TGI: > 23.7 µM
IGROV1 ovarian
  GI50: 10.2 µM
  TGI: > 100 µM
U251 CNS
  GI50: 4.4 µM
  TGI: > 100 µM
ACHN renal
  GI50: 38.6 µM
  TGI: > 100 µM
SN12C renal
  GI50: 20.4 µM
  TGI: > 100 µM
NCI/ADR-RES ovarian
  GI50: > 100 µM
  TGI: > 100 µM
DU-145 prostate
  GI50: 11.5 µM
  TGI: > 100 µM
MCF7 breast
  GI50: 0.485 µM
  TGI: > 100 µM
MOLT-4 leukemia
  GI50: 1.81 µM
  TGI: > 100 µM
RXF 393 renal
  GI50: 1.83 µM
  TGI: 21.6 µM
NCI-H23 lung
  GI50: 28.7 µM
  TGI: > 100 µM
SF-539 CNS
  GI50: 1.58 µM
  TGI: > 100 µM
BT-549 breast
  GI50: 4.35 µM
  TGI: > 100 µM
SK-MEL-28 melanoma
  GI50: 14.6 µM
  TGI: > 100 µM
HL-60(TB) leukemia
  GI50: 1.41 µM
  TGI: > 100 µM
PC-3 prostate
  GI50: 3.16 µM
  TGI: > 100 µM
OVCAR-8 ovarian
  GI50: 29.4 µM
  TGI: > 100 µM
SK-MEL-5 melanoma
  GI50: 2.44 µM
  TGI: > 100 µM
LOX IMVI melanoma
  GI50: 4.09 µM
  TGI: > 100 µM
COLO 205 colon
  GI50: 16.3 µM
  TGI: > 100 µM
M14 melanoma
  GI50: 1.09 µM
  TGI: > 100 µM
786-0 renal
  GI50: 3.25 µM
  TGI: > 100 µM
SW-620 colon
  GI50: 1.05 µM
  TGI: > 100 µM
